Test results published in patent US4468511A, “C-20- And C-23-Modified macrolide derivatives” (Eli Lilly and Company, priority 1983, dated 1984).
Values after ≈ are worked out from the molar mass of the structure shown. Like-named read-outs stand apart in the source and are kept apart here.

Key:
Format in all cases: cell-based
Escherichia coli EC14 = test: MIC, standard agar-dilution assay; details: Escherichia coli, EC14
Description: (§1) Certain of the derivatives are active against some gram-negative bacteria, such as Pasteurella species. The MIC's in Table II were determined by standard agar-dilution assays. The MIC's in Table III were obtained using a conventional broth-dilution microtiter test.

Escherichia coli TEM = test: MIC, standard agar-dilution assay; details: Escherichia coli
Description: as §1

[1] = test system: Klebsiella pneumoniae KAE; test: MIC, standard agar-dilution assay; details: Klebsiella pneumoniae
Description: as §1

[2] = test system: Klebsiella pneumoniae X26; test: MIC, standard agar-dilution assay; details: Klebsiella pneumoniae, X26
Description: as §1

[3] = test system: Staphylococcus aureus V41; test: MIC, standard agar-dilution assay; details: Staphylococcus aureus, V41
Description: as §1

[4] = test system: Staphylococcus aureus X1.1; test: MIC, standard agar-dilution assay; details: Staphylococcus aureus, X1.1
Description: as §1

[5] = test system: Streptococcus Group D X66; test: MIC, standard agar-dilution assay
Description: as §1

[6] = test system: Streptococcus pneumoniae Park I; test: MIC, standard agar-dilution assay; details: Streptococcus pneumoniae
Description: as §1

[7] = test system: Streptococcus pyogenes 9960; test: MIC, standard agar-dilution assay; details: 9960
Description: as §1

[8] = test system: Streptococcus pyogenes C203; test: MIC, standard agar-dilution assay; details: Streptococcus pyogenes, C203
Description: as §1

[9] = test system: Staphylococcus aureus X400; test: MIC, standard agar-dilution assay; details: Staphylococcus aureus, X400
Description: (§2) The MIC's in Table II were determined by standard agar-dilution assays. The MIC's in Table III were obtained using a conventional broth-dilution microtiter test.

[10] = test system: Staphylococcus epidermidis EPI2; test: MIC, standard agar-dilution assay; details: Staphylococcus epidermidis, EPI2
Description: as §2

[11] = test system: Staphylococcus aureus S13E; test: microbe, parasite or virus in culture
Description: as §2

[12] = test system: Staphylococcus epidermidis EPI1; test: microbe, parasite or virus in culture; details: Staphylococcus epidermidis, EPI1
Description: as §2

[13] = test system: Mycoplasma gallisepticum 34159; test: MIC, conventional broth-dilution microtiter test; details: Mycoplasmoides gallisepticum
Description: as §1

[14] = test system: Mycoplasma gallisepticum 41313; test: MIC, conventional broth-dilution microtiter test; details: Mycoplasmoides gallisepticum
Description: as §1

Mycoplasma gallisepticum = test: MIC, conventional broth-dilution microtiter test; details: Mycoplasmoides gallisepticum
Description: as §1

Mycoplasma hyorhinis = test: MIC, conventional broth-dilution microtiter test
Description: as §1

Mycoplasma synoviae = test: MIC, conventional broth-dilution microtiter test; details: Mycoplasmopsis synoviae
Description: as §1

[15] = test system: Pasteurella hemolytica 22C; test: MIC, conventional broth-dilution microtiter test
Description: as §1

[16] = test system: Pasteurella hemolytica 23C; test: MIC, conventional broth-dilution microtiter test
Description: as §1

[17] = test system: Pasteurella hemolytica 41D; test: MIC, conventional broth-dilution microtiter test
Description: as §1

[18] = test system: Pasteurella multocida 17E; test: MIC, conventional broth-dilution microtiter test
Description: as §1

[19] = test system: Pasteurella multocida 22A; test: MIC, conventional broth-dilution microtiter test
Description: as §1

[20] = test system: Pasteurella multocida 40G; test: MIC, conventional broth-dilution microtiter test
Description: as §1

[21] = test system: Pasteurella multocida 60A; test: MIC, conventional broth-dilution microtiter test
Description: as §1

[22] = test system: Pasteurella multocida 68C; test: MIC, conventional broth-dilution microtiter test
Description: as §1

Staphylococcus aureus = test: MIC, conventional broth-dilution microtiter test
Description: as §1

Streptococcus sp. 80 = test: MIC, conventional broth-dilution microtiter test
Description: as §1

Row | SMILES | MIC (Escherichia coli EC14) [µg/mL] | MIC (Escherichia coli TEM) [µg/mL] | MIC [1] [µg/mL] | MIC [2] [µg/mL] | MIC [3] [µg/mL] | MIC [4] [µg/mL] | MIC [5] [µg/mL] | MIC [6] [µg/mL] | MIC [7] [µg/mL] | MIC [8] [µg/mL] | MIC [9] [µg/mL] | MIC [10] [µg/mL] | MIC [11] [µg/mL] | MIC [12] [µg/mL] | MIC [13]; 34159 [µg/mL] | MIC [14]; 41313 [µg/mL] | MIC (Mycoplasma gallisepticum) [µg/mL] | MIC (Mycoplasma hyorhinis; Mycoplasma) [µg/mL] | MIC (Mycoplasma synoviae) [µg/mL] | MIC ([15]; Pasteurella, 22C) [µg/mL] | further results
1 | CCC1OC(=O)CC(O)C(C)C(OC2OC(C)C(OC(C)=O)C(N(C)C)C2OC(C)=O)C(CCOC(=O)Cc2ccccc2)CC(C)C(=O)C=CC(C)=CC1CO (stereo not shown) [Compound 54, 2',4'-Di-O-acetyl-20-O-phenylacetyl-20-dihydro-OMT] | > 128 | 16 (≈ 20 µM) | > 128 | 4 (≈ 4.99 µM) | 2 (≈ 2.49 µM) | 2 (≈ 2.49 µM) | 4 (≈ 4.99 µM) | 0.5 (≈ 0.623 µM) | 4 (≈ 4.99 µM) | 1 (≈ 1.25 µM) | 2 (≈ 2.49 µM) | 2 (≈ 2.49 µM) | 2 (≈ 2.49 µM) | 2 (≈ 2.49 µM) | 3.12 (≈ 3.89 µM) | 0.78 (≈ 0.973 µM) | 0.048 (≈ 0.0599 µM) | 50 (≈ 62.3 µM) | 25 (≈ 31.2 µM) | 12.5 (≈ 15.6 µM) | MIC ([16]; Pasteurella, 23C): 12.5 µg/mL (≈ 15.6 µM); MIC ([17]; Pasteurella, 41D): 12.5 µg/mL (≈ 15.6 µM); MIC ([18]; Pasteurella multocida, 17E): 12.5 µg/mL (≈ 15.6 µM); MIC ([19]; Pasteurella multocida, 22A): 25 µg/mL (≈ 31.2 µM); MIC ([20]; Pasteurella multocida, 40G): 25 µg/mL (≈ 31.2 µM); MIC ([21]; Pasteurella multocida, 60A): 6.25 µg/mL (≈ 7.79 µM); MIC ([22]; Pasteurella multocida, 68C): 6.25 µg/mL (≈ 7.79 µM); MIC (Staphylococcus aureus): 0.78 µg/mL (≈ 0.973 µM); MIC (Streptococcus sp. 80; Streptococcus, SP.80): 3.12 µg/mL (≈ 3.89 µM)
2 | CCC1OC(=O)CC(O)C(C)C(OC2OC(C)C(OC(C)=O)C(N(C)C)C2OC(C)=O)C(CCOC(=O)Cc2ccccc2)CC(C)C(=O)C=CC(C)=CC1COC(=O)Cc1ccccc1 (stereo not shown) [Compound 55, 2',4'-di-O-acetyl-20,23-di-O-phenylacetyl-20-dihydro-OMT] | > 128 | > 128 | > 128 | > 128 | 8 (≈ 8.69 µM) | 8 (≈ 8.69 µM) | 8 (≈ 8.69 µM) | 1 (≈ 1.09 µM) | 8 (≈ 8.69 µM) | 2 (≈ 2.17 µM) | 8 (≈ 8.69 µM) | 2 (≈ 2.17 µM) | 4 (≈ 4.35 µM) | 4 (≈ 4.35 µM) | 3.12 (≈ 3.39 µM) | 0.78 (≈ 0.848 µM) | 0.097 (≈ 0.105 µM) | 50 (≈ 54.3 µM) | 6.25 (≈ 6.79 µM) | > 50 | MIC ([16]; Pasteurella, 23C): > 50 µg/mL; MIC ([17]; Pasteurella, 41D): > 50 µg/mL; MIC ([18]; Pasteurella multocida, 17E): > 50 µg/mL; MIC ([19]; Pasteurella multocida, 22A): > 50 µg/mL; MIC ([20]; Pasteurella multocida, 40G): > 50 µg/mL; MIC ([21]; Pasteurella multocida, 60A): 50 µg/mL (≈ 54.3 µM); MIC ([22]; Pasteurella multocida, 68C): > 50 µg/mL; MIC (Staphylococcus aureus): 0.78 µg/mL (≈ 0.848 µM); MIC (Streptococcus sp. 80; Streptococcus, SP.80): 1.56 µg/mL (≈ 1.7 µM)
3 | CCC1CC(C)C(=O)C=CC(C)=CC(CN2CCCCCCC2)C(CC)OC(=O)CC(O)C(C)C1OC1OC(C)C(OC(C)=O)C(N(C)C)C1OC(C)=O (stereo not shown) [Compound 57] |  |  |  |  |  |  |  |  |  |  |  |  |  |  |  |  |  |  | 12.5 (≈ 16.4 µM) |  | MIC ([13]; broth-dilution microtiter, Mycoplasma gallisepticum 34159, Resistant strain, read-out: MIC): 50 µg/mL (≈ 65.5 µM); MIC ([14]; broth-dilution microtiter, Mycoplasma gallisepticum 41313, Resistant strain, read-out: MIC): 50 µg/mL (≈ 65.5 µM); MIC (Mycoplasma gallisepticum; broth-dilution microtiter, Mycoplasma gallisepticum, read-out: MIC): 0.78 µg/mL (≈ 1.02 µM); MIC (Mycoplasma hyorhinis; broth-dilution microtiter, Mycoplasma hyorhinis, read-out: MIC): > 50 µg/mL; MIC ([15]; broth-dilution microtiter, Pasteurella hemolytica 22C, read-out: MIC): 0.78 µg/mL (≈ 1.02 µM); MIC ([16]; broth-dilution microtiter, Pasteurella hemolytica 23C, read-out: MIC): 1.56 µg/mL (≈ 2.04 µM); MIC ([17]; broth-dilution microtiter, Pasteurella hemolytica 41D, read-out: MIC): 0.78 µg/mL (≈ 1.02 µM); MIC ([18]; broth-dilution microtiter, Pasteurella multocida 17E, Bovine isolate, read-out: MIC): 1.56 µg/mL (≈ 2.04 µM); MIC ([19]; broth-dilution microtiter, Pasteurella multocida 22A, read-out: MIC): 1.56 µg/mL (≈ 2.04 µM); MIC ([20]; broth-dilution microtiter, Pasteurella multocida 40G, read-out: MIC): 1.56 µg/mL (≈ 2.04 µM); MIC ([21]; broth-dilution microtiter, Pasteurella multocida 60A, Avian isolate, read-out: MIC): 1.56 µg/mL (≈ 2.04 µM); MIC ([22]; broth-dilution microtiter, Pasteurella multocida 68C, read-out: MIC): 0.78 µg/mL (≈ 1.02 µM); MIC (Staphylococcus aureus; broth-dilution microtiter, read-out: MIC): 0.39 µg/mL (≈ 0.511 µM); MIC (Streptococcus sp. 80; broth-dilution microtiter, Streptococcus sp. 80, read-out: MIC): 0.195 µg/mL (≈ 0.256 µM)
